Patent US20230087118A1, “IMIDAZO[1,2-a][sequence] DERIVATIVES AND THEIR USE IN THE TREATMENT OF DISEASE” (priority 2019, published 2023)
Counter-ions that a name gives are not always drawn.

Each compound was assayed against T1, IRAK4 (Homo sapiens, UniProt Q9NWZ3) (assay: biochemical). Details: not given.
T1 sequence (Q9NWZ3 1-460): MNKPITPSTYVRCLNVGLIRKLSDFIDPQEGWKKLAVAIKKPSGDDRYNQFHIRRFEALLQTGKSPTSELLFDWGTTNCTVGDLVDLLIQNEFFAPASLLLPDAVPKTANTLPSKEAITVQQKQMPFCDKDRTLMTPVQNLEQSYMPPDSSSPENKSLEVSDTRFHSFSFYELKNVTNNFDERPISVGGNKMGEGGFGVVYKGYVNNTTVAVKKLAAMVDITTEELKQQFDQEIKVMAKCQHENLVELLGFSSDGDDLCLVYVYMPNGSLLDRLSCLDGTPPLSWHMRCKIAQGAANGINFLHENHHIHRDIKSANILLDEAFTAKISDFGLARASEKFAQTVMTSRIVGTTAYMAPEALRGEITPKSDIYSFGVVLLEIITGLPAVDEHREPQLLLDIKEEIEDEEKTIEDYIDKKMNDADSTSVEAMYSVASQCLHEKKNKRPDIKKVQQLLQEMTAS

**Q.** With `CC(C)Oc1nc2nc(C34COC(C)(C3)C4)cn2cc1C(=O)Nc1ccn(C(F)F)n1` [Example 361, N-(1-(difluoromethyl)-1H-pyrazol-3-yl)-7-isopropoxy-2-(1-methyl-2-oxabicyclo[2.1.1]hexan-4-yl)imidazo[1,2-a]pyrimidine-6-carboxamide] as the compound, how does the IC50 read?
**A.** 0.0037 µM

**Q.** `CC12CCC(c3cn4cc(C(=O)Nc5ccn(CCF)n5)c(OC5CCC5)cc4n3)(CO1)C2` (stereo not drawn) [Example 537, 7-Cyclobutoxy-N-(1-(2-fluoroethyl)-1H-pyrazol-3-yl)-2-(1-methyl-2-oxabicyclo[2.2.1]heptan-4-yl)imidazo[1,2-a]pyridine-6-carboxamide] was tested. Which IC50 did it give?
**A.** 0.0063 µM

**Q.** `CC(C)Oc1nc2nc(C34COC(C)(C3)C4)cn2cc1C(=O)Nc1cccc(-c2cnn(C)c2)n1` [Example 413, 7-Isopropoxy-N-(6-(1-methyl-1H-pyrazol-4-yl)pyridin-2-yl)-2-(1-methyl-2-oxabicyclo[2.1.1]hexan-4-yl)imidazo[1,2-a]pyrimidine-6-carboxamide] was tested. Which IC50 did it give?
**A.** 0.0001 µM

**Q.** With `COc1cccc(NC(=O)c2cn3cc(C45COC(C)(C4)C5)nc3cc2OC2CCC2)n1` [Example 529, 7-Cyclobutoxy-N-(6-methoxypyridin-2-yl)-2-(1-methyl-2-oxabicyclo[2.1.1]hexan-4-yl)imidazo[1,2-a]pyridine-6-carboxamide] as the compound, how does the IC50 read?
**A.** 0.0003 µM

**Q.** With `Cn1ccc(NC(=O)c2cn3cc([C@]45CC[C@](C)(C4)OC5)nc3nc2OC2CCCC2)n1` (single isomer, unassigned) [Example 636] as the compound, how does the IC50 read?
**A.** 0.0037 µM

**Q.** How did the IC50 turn out when `Cc1cnc2c(NC(=O)c3cn4cc([C@]56CO[C@H](CCO5)C6)nc4nc3OC(C)C)cnn2c1` (single isomer, unassigned) [Example 647] was run?
**A.** 0.0013 µM

**Q.** For `CC(C)Oc1nc2nc(C34COC(C)(C3)C4)cn2cc1C(=O)Nc1cccc(-c2cnoc2)n1` [Example 640, 7-Isopropoxy-N-(6-(isoxazol-4-yl)pyridin-2-yl)-2-(1-methyl-2-oxabicyclo[2.1.1]hexan-4-yl)imidazo[1,2-a]pyrimidine-6-carboxamide], which IC50 is on record?
**A.** 0.0007 µM

**Q.** Which IC50 does the source give for `CC(C)Oc1nc(C(=O)Nc2cccc(C(F)F)n2)cn2cc(C34COC(C)(C3)C4)nc12` [Example 336, N-(6-(difluoromethyl)pyridin-2-yl)-8-isopropoxy-2-(1-methyl-2-oxabicyclo[2.1.1]hexan-4-yl)imidazo[1,2-a]pyrazine-6-carboxamide] here?
**A.** 0.0021 µM

**Q.** With `CC(C)Oc1nc2nc(C34COC(C)(C3)C4)cn2cc1C(=O)Nc1cnn2cc(C3CC3)cnc12` [Example 375, N-(6-cyclopropylpyrazolo[1,5-a]pyrimidin-3-yl)-7-isopropoxy-2-(1-methyl-2-oxabicyclo[2.1.1]hexan-4-yl)imidazo[1,2-a]pyrimidine-6-carboxamide] as the compound, how does the IC50 read?
**A.** 0.0067 µM

**Q.** With `CCOc1nc(C(=O)Nc2cccc(C(F)F)n2)cn2cc([C@@]34CC[C@@](C)(C3)OC4)nc12` (single isomer, unassigned) [Example 601] as the compound, how does the IC50 read?
**A.** 0.0019 µM

**Q.** Which IC50 does the source give for `CCOc1cc(C(=O)Nc2cccc(C(F)F)n2)cn2cc([C@@H]3CCCOC3)nc12` (single isomer, unassigned) [Example 54] here?
**A.** 0.0065 µM

**Q.** Which IC50 does the source give for `CC(C)Oc1nc2nc([C@]34CC[C@](C)(C3)OC4)cn2cc1C(=O)Nc1cccn(C(F)F)c1=O` (single isomer, unassigned) [Example 629] here?
**A.** 0.0003 µM

**Q.** Which IC50 does the source give for `CC(C)Oc1nc(C(=O)Nc2cnn3cccnc23)cn2cc(C34COC(CF)(C3)C4)nc12` [Example 340, 2-(1-(Fluoromethyl)-2-oxabicyclo[2.1.1]hexan-4-yl)-8-isopropoxy-N-(pyrazolo[1,5-a]pyrimidin-3-yl)imidazo[1,2-a]pyrazine-6-carboxamide] here?
**A.** 0.0067 µM

**Q.** Which IC50 does the source give for `CCOc1nc(C(=O)Nc2cccnc2OC(C)C)cn2cc(C34COC(C)(C3)C4)nc12` [Example 499, 8-Ethoxy-N-(2-isopropoxypyridin-3-yl)-2-(1-methyl-2-oxabicyclo[2.1.1]hexan-4-yl)imidazo[1,2-a]pyrazine-6-carboxamide] here?
**A.** 0.0017 µM

**Q.** Which IC50 does the source give for `CCOc1nc(C(=O)Nc2cc(F)cnc2OC)cn2cc(C3CCCOC3)nc12` (stereo not drawn) [Example 271, 8-Ethoxy-N-(5-fluoro-2-methoxypyridin-3-yl)-2-(tetrahydro-2H-pyran-3-yl)imidazo[1,2-a]pyrazine-6-carboxamide] here?
**A.** 0.0073 µM

**Q.** Which IC50 does the source give for `CC(C)Oc1cc2nc(C34CCC(C3)OC4)cn2cc1C(=O)Nc1ccn(C)n1` (stereo not drawn) [Example 415, 2-(2-Oxabicyclo[2.2.1]heptan-4-yl)-7-isopropoxy-N-(1-methyl-1H-pyrazol-3-yl)imidazo[1,2-a]pyridine-6-carboxamide] here?
**A.** 0.0085 µM

**Q.** `Cn1ccc(NC(=O)c2cn3cc([C@@]45CC[C@@](C)(C4)OC5)nc3cc2OC2CCCC2)n1` (single isomer, unassigned) [Example 634] was tested. Which IC50 did it give?
**A.** 0.0023 µM

**Q.** With `CCOc1nc(C(=O)Nc2cccc3ccnn23)cn2cc(C34COC(C)(C3)C4)nc12` [Example 489, 8-Ethoxy-2-(1-methyl-2-oxabicyclo[2.1.1]hexan-4-yl)-N-(pyrazolo[1,5-a]pyridin-7-yl)imidazo[1,2-a]pyrazine-6-carboxamide] as the compound, how does the IC50 read?
**A.** 0.0031 µM

**Q.** Which IC50 does the source give for `COc1ncccc1NC(=O)c1cn2cc([C@@]34CC[C@@](C)(C3)OC4)nc2nc1OC(C)C` (single isomer, unassigned) [Example 578] here?
**A.** 0.0002 µM

**Q.** For `CC(C)Oc1cc2nc([C@@]34CC[C@@](C)(C3)OC4)cn2cc1C(=O)Nc1cccn(C)c1=O` (single isomer, unassigned) [Example 620], which IC50 is on record?
**A.** 0.0006 µM

**Q.** How did the IC50 turn out when `CC12CCC(c3cn4cc(C(=O)Nc5cccc(C(F)F)n5)cc(OC(F)F)c4n3)(CO1)C2` (stereo not drawn) [Example 251] was run?
**A.** 0.0153 µM

**Q.** How did the IC50 turn out when `COc1ccc2ncc(NC(=O)c3cn4cc(C56COC(C)(C5)C6)nc4cc3OC(C)C)n2n1` [Example 301, 7-Isopropoxy-N-(6-methoxyimidazo[1,2-b]pyridazin-3-yl)-2-(1-methyl-2-oxabicyclo[2.1.1]hexan-4-yl)imidazo[1,2-a]pyridine-6-carboxamide] was run?
**A.** 0.0066 µM

**Q.** `CC(C)Oc1nc2nc(C34CCC(C3)OC4)cn2cc1C(=O)Nc1cnn2cccnc12` (stereo not drawn) [Example 565, 2-(2-Oxabicyclo[2.2.1]heptan-4-yl)-7-isopropoxy-N-(pyrazolo[1,5-a]pyrimidin-3-yl)imidazo[1,2-a]pyrimidine-6-carboxamide] was tested. Which IC50 did it give?
**A.** 0.0005 µM

**Q.** With `Cn1ccc(NC(=O)c2cn3cc([C@@]45CC[C@@](C)(C4)OC5)nc3nc2OC2CCCC2)n1` (single isomer, unassigned) [Example 635] as the compound, how does the IC50 read?
**A.** 0.0026 µM

**Q.** Which IC50 does the source give for `COc1nc(C(=O)Nc2cccc(C(F)(F)F)n2)cn2cc(C[C@@H]3CCOC3)nc12` (single isomer, unassigned) [Example 70] here?
**A.** 0.0169 µM

**Q.** With `CC[C@H](C)Oc1cc2nc(C34COC(C)(C3)C4)cn2cc1C(=O)Nc1cnn2cc(C)cnc12` [Example 559] as the compound, how does the IC50 read?
**A.** 0.0007 µM

**Q.** Which IC50 does the source give for `Cc1nocc1NC(=O)c1cn2cc(C34CCC(C)(C3)OC4)nc2cc1OC(C)C` (stereo not drawn) [Example 507, 7-Isopropoxy-2-(1-methyl-2-oxabicyclo[2.2.1]heptan-4-yl)-N-(3-methylisoxazol-4-yl)imidazo[1,2-a]pyridine-6-carboxamide] here?
**A.** 0.0095 µM

**Q.** For `COc1nc(C(=O)Nc2cccc(C(F)(F)F)n2)cn2cc(C34CCOC(C)(C3)C4)nc12` [Example 238], which IC50 is on record?
**A.** 0.0064 µM

Same assay, conditions: IRAK4 Biochemical Assay (1 mM ATP, 2 h) IC50 (μM), 1 mM ATP, 2 h, 100 pM IRAK4

**Q.** With `CC(C)Oc1cc2nc(C34COC(C)(C3)C4)cn2cc1C(=O)Nc1ccno1` [Example 317, 7-Isopropoxy-N-(isoxazol-5-yl)-2-(1-methyl-2-oxabicyclo[2.1.1]hexan-4-yl)imidazo[1,2-a]pyridine-6-carboxamide trifluoroacetate] as the compound, how does the IC50 read?
**A.** 0.022 µM

**Q.** For `CC(C)Oc1cc2nc(C3CCOCC3)cn2cc1C(=O)Nc1cccc(C(F)F)n1` [Example 92, N-(6-(difluoromethyl)pyridin-2-yl)-7-isopropoxy-2-(tetrahydro-2H-pyran-4-yl)imidazo[1,2-a]pyridine-6-carboxamide], which IC50 is on record?
**A.** 0.0003 µM

**Q.** How did the IC50 turn out when `CC(C)Oc1nc2nc(C34COC(C)(C3)C4)cn2cc1C(=O)Nc1cccc(N(C)C)n1` [Example 357, N-(6-(dimethylamino)pyridin-2-yl)-7-isopropoxy-2-(1-methyl-2-oxabicyclo[2.1.1]hexan-4-yl)imidazo[1,2-a]pyrimidine-6-carboxamide trifluoroacetate] was run?
**A.** 0.0003 µM

**Q.** How did the IC50 turn out when `CC(C)Oc1nc2nc(C34COC(C)(C3)C4)cn2cc1C(=O)Nc1cccc(C(F)F)n1` [Example 218] was run?
**A.** 0.0002 µM

**Q.** For `COc1cc2nc(C3CCOCC3)cn2cc1C(=O)Nc1cc(F)cn(C)c1=O` [Example 212, N-(5-fluoro-1-methyl-2-oxo-1,2-dihydropyridin-3-yl)-7-methoxy-2-(tetrahydro-2H-pyran-4-yl)imidazo[1,2-a]pyridine-6-carboxamide trifluoroacetate], which IC50 is on record?
**A.** 0.016 µM

**Q.** How did the IC50 turn out when `CC(C)Oc1nc2nc(C34COC(C)(C3)C4)cn2cc1C(=O)Nc1cnn(C)n1` [Example 365, 7-Isopropoxy-N-(2-methyl-2H-1,2,3-triazol-4-yl)-2-(1-methyl-2-oxabicyclo[2.1.1]hexan-4-yl)imidazo[1,2-a]pyrimidine-6-carboxamide trifluoroacetate] was run?
**A.** 0.0128 µM

**Q.** For `CC(C)(C)c1cn2cc(C(=O)Nc3cnn4cccnc34)c(OC3CCC3)cc2n1` [Example 266, 2-(tert-Butyl)-7-cyclobutoxy-N-(pyrazolo[1,5-a]pyrimidin-3-yl)imidazo[1,2-a]pyridine-6-carboxamide trifluoroacetate], which IC50 is on record?
**A.** 0.0013 µM

**Q.** With `CC(C)Oc1nc2nc(C34COC(C)(C3)C4)cn2cc1C(=O)Nc1csc2nccnc12` [Example 380, 7-Isopropoxy-2-(1-methyl-2-oxabicyclo[2.1.1]hexan-4-yl)-N-(thieno[2,3-b]pyrazin-7-yl)imidazo[1,2-a]pyrimidine-6-carboxamide trifluoroacetate] as the compound, how does the IC50 read?
**A.** 0.0002 µM
